The text below walks through data of patent publication US20240309005A1 (priority 2021, published 2024).

One data set concerns the target CYP2B6 (Homo sapiens (Human), UniProt P20813). Description: in vitro. As to conditions: microsomes.
The target in another data set is CYP1A2 (Homo sapiens (Human), UniProt P05177). As to the kind of experiment: in vitro. As to conditions: microsomes.
In a further data set the test system is CYP3A4. As to the kind of experiment: in vitro. Conditions: human, microsomes.
Data set [1] in a line: in vivo. Conditions: male, SD, rat; for bioavailability / Cmax: po, 30 mg/kg.
For the next data set, the target named is CYP2C9 (Homo sapiens (Human), UniProt P11712). As to the kind of experiment: in vitro. Conditions: microsomes.
Sequence of CYP2C9 (P11712 whole entry): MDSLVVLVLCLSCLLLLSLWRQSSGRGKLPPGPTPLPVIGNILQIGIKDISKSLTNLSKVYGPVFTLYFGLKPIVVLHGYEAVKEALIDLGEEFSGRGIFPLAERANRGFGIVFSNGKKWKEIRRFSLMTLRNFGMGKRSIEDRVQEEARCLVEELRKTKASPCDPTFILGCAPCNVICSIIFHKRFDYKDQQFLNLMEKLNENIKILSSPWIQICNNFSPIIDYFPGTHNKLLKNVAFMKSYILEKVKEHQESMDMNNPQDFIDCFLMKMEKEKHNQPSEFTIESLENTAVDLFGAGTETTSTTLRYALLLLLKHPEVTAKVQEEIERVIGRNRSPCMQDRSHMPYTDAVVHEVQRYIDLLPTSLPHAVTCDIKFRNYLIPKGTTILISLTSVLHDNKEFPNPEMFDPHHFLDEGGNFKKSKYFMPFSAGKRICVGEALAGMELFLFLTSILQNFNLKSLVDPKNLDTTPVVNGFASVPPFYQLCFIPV
The next data set can be described thus: physchem. Conditions: 25 °C, kinetic from dmso stock.
The conditions of data set [2]: male, SD, in vivo.
For a further data set, the target named is CYP2D6 (Homo sapiens (Human), UniProt P10635). Description: in vitro. As to conditions: microsomes.
Sequence of CYP2D6 (P10635 whole entry): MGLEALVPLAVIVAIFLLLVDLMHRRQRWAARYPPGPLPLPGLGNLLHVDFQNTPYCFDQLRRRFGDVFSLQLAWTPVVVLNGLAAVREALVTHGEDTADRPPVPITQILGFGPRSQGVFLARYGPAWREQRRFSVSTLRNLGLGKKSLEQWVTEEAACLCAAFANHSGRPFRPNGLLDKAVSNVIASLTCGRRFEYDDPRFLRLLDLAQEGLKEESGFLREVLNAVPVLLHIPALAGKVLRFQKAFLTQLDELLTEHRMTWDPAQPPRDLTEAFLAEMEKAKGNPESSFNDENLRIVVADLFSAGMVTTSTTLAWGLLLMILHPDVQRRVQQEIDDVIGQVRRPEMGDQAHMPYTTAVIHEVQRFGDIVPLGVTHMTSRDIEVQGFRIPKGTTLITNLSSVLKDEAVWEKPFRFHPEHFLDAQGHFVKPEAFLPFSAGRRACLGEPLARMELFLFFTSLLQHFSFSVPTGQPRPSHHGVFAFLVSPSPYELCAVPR
Data set [3] can be described thus: in vivo. As to conditions: male, CD1, mouse; for Cmax / bioavailability: po, 30 mg/kg.

Converted amounts (≈) assume the structure as drawn.

For orientation: inhibition means the drop in the measured response relative to a control, in per cent. What is called half-life is how long it takes for the measured level to halve. Read a high half-life as slow decline. A word on the bioavailability: it is dose-corrected exposure relative to a reference, in per cent. The term Cmax denotes the highest concentration seen after dosing. Broadly, the solubility is how much of the substance goes into solution per volume.

Sequence of CYP1A2 (P05177 whole entry): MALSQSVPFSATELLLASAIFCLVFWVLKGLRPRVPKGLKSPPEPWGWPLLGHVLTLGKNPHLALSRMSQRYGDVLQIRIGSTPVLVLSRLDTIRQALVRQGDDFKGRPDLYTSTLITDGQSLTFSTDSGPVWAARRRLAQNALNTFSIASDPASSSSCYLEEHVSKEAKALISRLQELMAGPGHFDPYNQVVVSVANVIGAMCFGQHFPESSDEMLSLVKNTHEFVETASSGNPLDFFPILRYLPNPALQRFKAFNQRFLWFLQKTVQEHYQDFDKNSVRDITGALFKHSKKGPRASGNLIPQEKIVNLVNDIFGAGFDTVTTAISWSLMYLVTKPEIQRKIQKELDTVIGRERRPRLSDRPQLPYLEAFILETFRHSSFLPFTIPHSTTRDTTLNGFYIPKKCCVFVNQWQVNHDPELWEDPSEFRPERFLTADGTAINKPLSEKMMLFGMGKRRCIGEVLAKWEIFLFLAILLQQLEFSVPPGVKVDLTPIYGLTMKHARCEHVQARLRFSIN
Sequence of CYP2B6 (P20813 whole entry): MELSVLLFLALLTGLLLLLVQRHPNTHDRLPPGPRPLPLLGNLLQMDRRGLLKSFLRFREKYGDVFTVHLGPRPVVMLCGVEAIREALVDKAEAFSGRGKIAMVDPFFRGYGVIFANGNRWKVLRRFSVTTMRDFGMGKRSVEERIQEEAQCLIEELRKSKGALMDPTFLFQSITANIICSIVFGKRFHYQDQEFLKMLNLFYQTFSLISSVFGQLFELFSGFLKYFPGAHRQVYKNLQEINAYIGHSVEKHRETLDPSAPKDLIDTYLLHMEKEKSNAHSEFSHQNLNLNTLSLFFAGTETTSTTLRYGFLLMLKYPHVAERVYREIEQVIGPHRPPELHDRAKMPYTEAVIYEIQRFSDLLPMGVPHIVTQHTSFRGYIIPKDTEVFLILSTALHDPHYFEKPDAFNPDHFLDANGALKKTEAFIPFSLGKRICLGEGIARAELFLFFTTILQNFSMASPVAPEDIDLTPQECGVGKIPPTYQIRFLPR

For the compound `Cc1n[nH]c2nc(-c3ccc(NS(=O)(=O)c4cc(F)ccc4F)c(F)c3)nc(NCCN(C)C)c12` [Compound 84, N-[4-(4-[[2-(dimethylamino)ethyl]amino]-3-methyl-1H-pyrazolo[3,4-d]pyrimidin-6-yl)-2-fluorophenyl]-2,5-difluorobenzenesulfonamide], the inhibition at 20 min, 10 µM against CYP2B6 was 1.2%; against CYP1A2 it was -0.9%; against CYP2C9, 2.2%; at CYP2D6, 0%. In the data set on CYP3A4, the inhibition at 5 min, 10 µM came to 0.5%. Besides, the inhibition at 10 min, 10 µM in the data set on CYP3A4 was found to be 3%. In addition, the hERG/IC50 in the data set with hERG / SGK1 (whole cell) came to 177. The values for the half-life in the data set “in vivo [1]” and in “in vivo [3]” were 3.15 h and 2.3 h, respectively. Further, the bioavailability in “in vivo [1]” is 17.9%; in “in vivo [3]”, 22%. For the same compound, the Cmax turned out to be 2470 ng/mL in “in vivo [1]” (Cmax (ng/ml)), 2470 ng/mL in “in vivo [1]” (pK Data in Rat: Cmax) and 621 ng/mL in “in vivo [3]”. Also, the solubility at 2 h in “physchem” (pH 5, fessif) came to 297 µM (≈ 150 µg/mL); in the data set “physchem” (pH 7.4, aqueous buffer), 3.38 µM (≈ 1.71 µg/mL). For the same compound, in data set [2], the “pK Data in Rat: F” value is recorded as “Cmax = 2470 ng/mL F = 17.9%”.

For `Cc1n[nH]c2nc(-c3ccc(NS(=O)(=O)c4cc(F)ccc4F)c(Cl)c3)nc(NCCN(C)C)c12` [Compound 85, N-(2-chloro-4-(4-((2-(dimethylamino)ethyl)amino)-3-methyl-1H-pyrazolo[3,4-d]pyrimidin-6-yl)phenyl)-2,5-difluorobenzenesulfonamide], the inhibition at 20 min, 10 µM at CYP2B6 was 7.7%; on CYP1A2 it was -0.7%; at CYP2C9, 9.4%; on CYP2D6 it was 1.8%. Also, the inhibition at 5 min, 10 µM in the data set with CYP3A4 is 19%. The inhibition at 10 min, 10 µM in the data set on CYP3A4 was -2.9%. The compound also showed a hERG/IC50 with hERG / SGK1 (whole cell) of 82. In “in vivo [1]”, this compound gave a half-life of 3.6 h. Moreover, in “in vivo [1]”, the bioavailability stood at 92%. For the same compound, the Cmax in “in vivo [1]” (Cmax (ng/ml)) and in the data set “in vivo [1]” (pK Data in Rat: Cmax) was 2750 ng/mL each time. Moreover, the solubility at 2 h in “physchem” (pH 5, fessif) worked out at 315 µM (≈ 164 µg/mL); in “physchem” (pH 7.4, aqueous buffer) it was 4.5 µM (≈ 2.35 µg/mL). Further, the “pK Data in Rat: F” value in data set [2] is recorded as “Cmax = 2747 ng/mL F = 92%”.

Turning to `Cc1n[nH]c2nc(-c3ccc(NS(=O)(=O)c4cc(Cl)ccc4F)cc3)nc(O[C@@H]3CCNC[C@@H]3F)c12` [Compound 29, 5-chloro-2-fluoro-N-(4-(4-(((3S,4R)-3-fluoropiperidin-4-yl)oxy)-3-methyl-1H-pyrazolo[3,4-d]pyrimidin-6-yl)phenyl)benzenesulfonamide], the inhibition at 20 min, 10 µM is 26% against CYP2B6, 8.8% against CYP1A2, 75% against CYP2C9 and 26% against CYP2D6. Moreover, the inhibition at 5 min, 10 µM in the data set with CYP3A4 was determined as 54%. In addition, in the data set with CYP3A4, the inhibition at 10 min, 10 µM was found to be 77%. Also, the hERG/IC50 with hERG / SGK1 (whole cell) turned out to be 2476. In addition, the half-life in “in vivo [1]” is 9.7 h; in “in vivo [3]” it was 1.04 h. For the same compound, the figures for the bioavailability in “in vivo [1]” and in “in vivo [3]” were 0.45% and 8%, respectively. The Cmax in the data set “in vivo [1]” (Cmax (ng/ml)) turned out to be 16 ng/mL; in “in vivo [3]”, 115 ng/mL. The solubility at 2 h came to 245 µM (≈ 131 µg/mL) in “physchem” (pH 5, fessif) and 3 µM (≈ 1.6 µg/mL) in “physchem” (pH 7.4, aqueous buffer).
